Measurements taken from US20240287063A1, “METHIONINE ADENOSYLTRANSFERASE 2A INHIBITOR” (NANJING CHIA TAI TIANQING PHARMACEUTICAL CO., LTD., priority 2021, published 2024).
Each block holds one compound with its values, some of them ahead of it.

Tests used:
HCT116 MTAP −/− cells = experiment: Cell testing method: HCT116 MTAP-/- cell proliferation inhibition (CellTiter-Glo, 120 h); assay type: cell-based; details: Homo sapiens, HCT-116; score by IC50 for inhibiting HCT116 MTAP−/− cells
Procedure: HCT116 MTAP −/− cells (purchased from Horizon Discovery): human colorectal cancer cell lines with MTAP gene deletion were cultured in medium RPMI 1640+10% FBS (Fetal bovine serum). On day 0 of the experiment, the live cell density of the foregoing cells in logarithmic growth phase was adjusted to 5000 cells/ml, the cells were inoculated to a 96-well plate by an amount of 100 μl/well, and a blank group was set in parallel; and the inoculated cell plate was put into a 37° C., 5% CO2 incubator for overnight culture.
On day 1 of the experiment, the overnight cultured cell plate was taken out, the supernatant was discarded, 80 μl of serum-free RPMI 1640 medium was added to each well, and place the cells in an incubator for starvation cultivation for 4 h. The compound to be tested was dissolved in DMSO (dimethyl sulfoxide) to prepare a 10 mM compound stock solution. After starvation, the cell plate was taken out, and 80 μl of RPMI 1640+20% FBS medium was added to each well; the cell plate was placed on an automatic liquid dispenser D300e (Tecan), and a dosing program was set as follows: a maximum concentration of the compound to be tested was 30 μM, the compound was diluted with DMSO by a 3 times concentration gradient, there was a total of 10 concentrations, two duplicate wells were set for each concentration, and the DMSO final concentration in each well of the 96-well plate was 0.3%, v/v. The pre-prepared 10 mM stock solution of the compound to be tested was taken out, and the above dosing program was run for dosing. After the dosing was completed, the cell plate was placed in incubator and culture for 120 h.
On day 6 of the experiment, the cell plate was taken out, 50 μl of CellTiter-Go® (purchased from Promega) was added to each well, and fluorescence signal was measured on Envision (PerkinElmer) according to operation procedures in the manual.
A dose-effect curve: log(inhibitor) vs. response-Variable slope was fitted by using GraphPad Prism 5 software to obtain an IC50 value of the compound for inhibiting cell proliferation inhibition. A formula for calculating an inhibition rate was: […]
Wherein, • Signal value of tested compound: mean fluorescence signal of cells group+medium group+compound group; • Signal value of blank group: mean fluorescence signal of medium group; • Signal value of negative control group: mean fluorescence signal of cells group+medium group.

MAT2A enzyme = target: T1, MAT2A enzyme (Homo sapiens, UniProt P31153); experiment: Enzymatic testing method for MAT2A (Biomol Green, OD620); assay type: biochemical; details: score by IC50 for inhibiting MAT2A; read-out: MAT2A inhibition score
T1 construct: purchased BPS 71401
T1 sequence (P31153 whole entry): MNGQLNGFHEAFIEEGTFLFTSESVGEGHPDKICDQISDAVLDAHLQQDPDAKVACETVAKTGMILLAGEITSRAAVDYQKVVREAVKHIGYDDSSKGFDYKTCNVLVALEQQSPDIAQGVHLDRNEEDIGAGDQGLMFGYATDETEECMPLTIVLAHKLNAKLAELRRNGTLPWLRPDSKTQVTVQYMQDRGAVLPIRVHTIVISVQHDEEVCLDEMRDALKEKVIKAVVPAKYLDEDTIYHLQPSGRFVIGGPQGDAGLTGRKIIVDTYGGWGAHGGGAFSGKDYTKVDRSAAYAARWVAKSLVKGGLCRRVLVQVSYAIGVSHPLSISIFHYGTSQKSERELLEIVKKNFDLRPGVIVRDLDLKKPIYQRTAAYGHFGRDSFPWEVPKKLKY
Procedure: • a) A 5×MAT2A test buffer (250 mM Tris-HCl, pH 8.0; 250 mM KCl; 75 mM MgCl2; 0.025% BSA; 0.05% Brij35; 1.5 mM EDTA) was first prepared and partially diluted to 1× for later use; • b) Preparation and addition of MAT2A enzyme (BPS, 71401): the MAT2A enzyme was prepared into 3.674 ng/L by using the 1×MAT2A test buffer (1.67×, final concentration 2.20 ng/L), a BioTek (MultiFlo FX) automatic liquid separator was used, 15 μL of 1.67×MAT2A enzyme solution was added to compound test wells and negative control wells respectively, and 15 μL of 1×MAT2A test buffer was added to blank control wells; • c) Preparation and addition of a compound: a compound to be tested was diluted with DMSO from 10 mM stock solution to 100 μM, a positive drug AGI-24512 was diluted under the same conditions, and the diluted compound and positive drug were automatically sprayed into each well by using a Tecan compound titrator (D300e) according to preset concentration gradients, where the spray volume was little and negligible. The concentration gradient was initially 1 μM, the dilution was implemented by ½ log, and a total of 8 gradients were set. Centrifugation at 2500 rpm for 30 s and incubation at 25° C. for 30 min were performed; • d) Preparation of ATP: 10 mM ATP (Sigma, A7699) was diluted with 1×MAT2A test buffer to 700 μM for later use; • e) Preparation and addition of a substrate and ATP mixture: 5×MAT2A test buffer, 3 μL/well; 750 μM L-methionine (Adamas, 01100469), 2.5 μL/well; 700 μM ATP, 2.5 μL/well; and double distilled water, 2 μL/well. A total amount of required mixture was prepared according to the number of test wells, and 10 μL of the mixture was added to each well by using the BioTek (MultiFlo FX) automatic liquid separator, followed by centrifugation at 2500 rpm for 30 s and reaction at 25° C. for 150 min; • f) Addition of Biomol Green detection reagent: 50 μL of Biomol Green (Enzo, BML-AK111) was added to each well by using the BioTek (MultiFlo FX) automatic liquid separator, followed by centrifugation at 2500 rpm for 30 s and incubation at 25° C. for 20 minutes; • g) After the reaction, OD620 values were read by using a Perkin Elmer (Envision 2105) multifunctional plate reader.
A formula for calculating an inhibition rate was as follows: […]
Wherein, • % Inhibition: inhibition rate % • ODsample: OD620 value in a sample well; • ODmin: representing a mean OD620 value of blank control wells without the enzyme or compound to be tested; • ODmax: representing a mean OD620 value of negative control wells with the enzyme and without the compound.
Then a dose-effect curve log(inhibitor) vs. response-Variable slope was fitted by usingGraphPad Prism 5 software to obtain an IC50 value of compound for MAT2A enzyme inhibition.

[1] = test system: HCT116 MTAP−/− subcutaneous xenograft tumors; experiment: In vivo effect experiment of HCT116 MTAP−/− subcutaneous xenograft tumors in nude mice
Procedure: Female Nu/Nu nude mice (6-8 weeks old, Beijing Vital River Laboratory Animal Technology Co., Ltd.) were raised in an SPF animal room at a temperature of 20° C.-25° C., relative humidity of 40%-70%, and light and dark lighting for 12 hours each; and animals can freely drink and eat. The animals were adaptively fed before experiment.
HCT116 MTAP^−/− cells (Horizon) were cultured in vitro for proliferation, cells in logarithmic growth phase were collected and resuspended in a serum-free RPMI-1640 medium, and the cell concentration was adjusted to 6.0×10^7 cells/mL; and 100 μL of the cell suspension was injected subcutaneously into the right anterior armpit of each nude mouse by using a 1 mL syringe, the status of the animals was observed regularly, and the growth of transplanted tumors was monitored regularly.
When the tumor volume reached 100-300 mm^3, animals with too large or too small tumor volume or uncertain tumor formation were eliminated, and tumor bearing mice with good health and similar tumor volume were selected and randomly grouped, 6 mice in each group; the administration group received daily intragastric administration (AG-270: 50 mg/kg, with a structure shown below; compound to be tested: 1-7.5 mg/kg); and the control group was intragastrically administrated with the same volume of blank solvent. In the administration period, the tumor diameter was measured twice a week, the tumor volume was calculated, the animals were weighed, and their weight was recorded.
A formula for calculating tumor volume (TV) is: Tv=½×a×b^2, wherein a represents long diameter of the tumor, and b represents short diameter of the tumor.
Experimental data is calculated and statistically processed by using Microsoft Office Excel 2007 software. Unless otherwise specified, the data were expressed as mean±standard error (Mean SEM), and t-test is used for comparison between two groups.
Growth curves of tumor volume in each group are shown in FIG. 1, results of SAM test in tumors of each group are shown in FIG. 2, and the mean tumor volume and SEM in each group are shown in Table 2 below: […]

IC50 (HCT116 MTAP −/− cells): < 150 nM
IC50 (MAT2A enzyme): < 50 nM
SMILES: O=c1c(-c2ccc(OC(F)F)cc2)cn2ccc(C3CC3)nc2c1-c1ccc(OC(F)F)cc1 [Example 23, 2-cyclopropyl-7,9-bis[4-(difluoromethoxy)phenyl]-8H-pyrido[1,2-a]pyrimidin-8-one]
Tumor volume, mean volume ([1]; 1 mg/kg daily intragastric, day 1 of administration): 152 mm^3
Tumor volume, mean volume ([1]; 1 mg/kg daily intragastric, day 4 of administration): 198 mm^3
Tumor volume, mean volume ([1]; 1 mg/kg daily intragastric, day 6 of administration): 205 mm^3
Tumor volume, mean volume ([1]; 1 mg/kg daily intragastric, day 8 of administration): 238 mm^3
Tumor volume, mean volume ([1]; 1 mg/kg daily intragastric, day 11 of administration): 266 mm^3
Tumor volume, mean volume ([1]; 1 mg/kg daily intragastric, day 13 of administration): 284 mm^3
Tumor volume, mean volume ([1]; 1 mg/kg daily intragastric, day 15 of administration): 312 mm^3
Tumor volume, mean volume ([1]; 2.5 mg/kg daily intragastric, day 1 of administration): 153 mm^3
Tumor volume, mean volume ([1]; 2.5 mg/kg daily intragastric, day 4 of administration): 190 mm^3
Tumor volume, mean volume ([1]; 2.5 mg/kg daily intragastric, day 6 of administration): 196 mm^3
Tumor volume, mean volume ([1]; 2.5 mg/kg daily intragastric, day 8 of administration): 193 mm^3
Tumor volume, mean volume ([1]; 2.5 mg/kg daily intragastric, day 11 of administration): 208 mm^3
Tumor volume, mean volume ([1]; 2.5 mg/kg daily intragastric, day 13 of administration): 190 mm^3
Tumor volume, mean volume ([1]; 2.5 mg/kg daily intragastric, day 15 of administration): 191 mm^3

IC50 (HCT116 MTAP −/− cells): < 150 nM
IC50 (MAT2A enzyme): < 50 nM
SMILES: Cn1cc2cc(-c3cn4ccc(OCC(F)(F)F)nc4c(-c4ccc(OC(F)F)cc4)c3=O)ccc2n1 [Example 22, 9-[4-(difluoromethoxy)phenyl]-7-(2-methyl-2H-indazol-5-yl)-2-(2,2,2-trifluoroethoxy)-8H-pyrido[1,2-a]pyrimidin-8-one]
Tumor volume, mean volume ([1]; 7.5 mg/kg daily intragastric, day 1 of administration): 152 mm^3
Tumor volume, mean volume ([1]; 7.5 mg/kg daily intragastric, day 4 of administration): 173 mm^3
Tumor volume, mean volume ([1]; 7.5 mg/kg daily intragastric, day 6 of administration): 180 mm^3
Tumor volume, mean volume ([1]; 7.5 mg/kg daily intragastric, day 8 of administration): 212 mm^3
Tumor volume, mean volume ([1]; 7.5 mg/kg daily intragastric, day 11 of administration): 267 mm^3
Tumor volume, mean volume ([1]; 7.5 mg/kg daily intragastric, day 13 of administration): 324 mm^3
Tumor volume, mean volume ([1]; 7.5 mg/kg daily intragastric, day 15 of administration): 375 mm^3

IC50 (HCT116 MTAP −/− cells): > 1000 nM
IC50 (MAT2A enzyme): < 50 nM
SMILES: Cn1cc2cc(-c3cn4ccc(NCC(F)(F)F)nc4c(-c4ccc5nn(C)cc5c4)c3=O)ccc2n1 [Example 12, 7,9-bis[(2-methyl-2H-indazol-5-yl)]-2-[(2,2,2-trifluoroethyl)amino]-8H-pyrido[1,2-a]pyrimidin-8-one]

IC50 (HCT116 MTAP −/− cells): < 150 nM
IC50 (MAT2A enzyme): < 50 nM
SMILES: Cn1cc2cc(-c3cn4ccc(C5CC5)nc4c(-c4ccc(OC(F)F)cc4)c3=O)ccc2n1 [Example 25, 2-cyclopropyl-9-[4-(difluoromethoxy)phenyl]-7-(2-methyl-2H-indazol-5-yl)-8H-pyrido[1,2-a]pyrimidin-8-one]
Tumor volume, mean volume ([1]; 5 mg/kg daily intragastric, day 1 of administration): 152 mm^3
Tumor volume, mean volume ([1]; 5 mg/kg daily intragastric, day 4 of administration): 174 mm^3
Tumor volume, mean volume ([1]; 5 mg/kg daily intragastric, day 6 of administration): 186 mm^3
Tumor volume, mean volume ([1]; 5 mg/kg daily intragastric, day 8 of administration): 219 mm^3
Tumor volume, mean volume ([1]; 5 mg/kg daily intragastric, day 11 of administration): 305 mm^3
Tumor volume, mean volume ([1]; 5 mg/kg daily intragastric, day 13 of administration): 378 mm^3
Tumor volume, mean volume ([1]; 5 mg/kg daily intragastric, day 15 of administration): 417 mm^3
